Experimental data taken from PMC4303209, “A novel phosphatidylinositol 3-kinase (PI3K) inhibitor directs a potent FOXO-dependent, p53-independent cell cycle arrest phenotype characterized by the differential induction of a subset of FOXO-regulated genes” (Breast Cancer Research : BCR, 2014).

Tested on: MCF-7 breast cancer cells
Assay: Microarray gene expression analysis (Agilent whole human genome 4 x 44K; compound vs DMSO, LIMMA log2 fold change)
Assay type: cell-based
Conditions: cell cycle genes

SMILES: Oc1cccc(-c2nc(N3CCOCC3)c3oc4ncccc4c3n2)c1 [PI-103]
- STAT5A log2FC (Gene 6776): 0.39
- STAT5B log2FC (Gene 6777): 0.11
- AURKA log2FC (Gene 6790): -0.02
- STK10 log2FC (Gene 6793): -0.32
- AURKC log2FC (Gene 6795): 0.0218
- SUV39H1 log2FC (Gene 6839): -0.50
- TACC1 log2FC (Gene 6867): 0.0342
- ADAM17 log2FC (Gene 6868): 0.53
- TAF1 log2FC (Gene 6872): 0.15
- TAL1 log2FC (Gene 6886): -0.57
- TBX3 log2FC (Gene 6926): -0.69
- TCF3 log2FC (Gene 6929): 0.0643
- DYNLT3 log2FC (Gene 6990): -0.24
- DYNLT1 log2FC (Gene 6993): -0.03
- TERF1 log2FC (Gene 7013): 0.38
- TERF2 log2FC (Gene 7014): -0.16
- TFAP4 log2FC (Gene 7023): 0.39
- NR2F2 log2FC (Gene 7026): 0.34
- TFDP1 log2FC (Gene 7027): -0.56
- TFDP2 log2FC (Gene 7029): 0.41
- TGFB1 log2FC (Gene 7040): -0.44
- THBS1 log2FC (Gene 7057): -0.91
- TNF log2FC (Gene 7124): -1.87
- TNFAIP3 log2FC (Gene 7128): -0.85
- TOP2A log2FC (Gene 7153): 0.91
- TOP2B log2FC (Gene 7155): 0.99
- TOP3A log2FC (Gene 7156): -0.05
- TP53 log2FC (Gene 7157): 0.0569
- TP53BP2 log2FC (Gene 7159): 0.35
- TPR log2FC (Gene 7175): 0.74
- TSC1 log2FC (Gene 7248): 0.42
- TSC2 log2FC (Gene 7249): -0.11
- TSG101 log2FC (Gene 7251): 0.39
- TTK log2FC (Gene 7272): 1.59
- TUBG1 log2FC (Gene 7283): -0.33
- UBA52 log2FC (Gene 7311): 0.31
- UBB log2FC (Gene 7314): 0.0362
- UBC log2FC (Gene 7316): 0.33
- UBE2B log2FC (Gene 7320): 0.65
- UBE2D1 log2FC (Gene 7321): 0.50
- UBE2E1 log2FC (Gene 7324): 0.0118
- UBE2I log2FC (Gene 7329): -0.30
- WEE1 log2FC (Gene 7465): 0.0429
- WNT5A log2FC (Gene 7474): 0.13
- WNT10B log2FC (Gene 7480): -0.49
- WNT9A log2FC (Gene 7483): 0.04
- XPC log2FC (Gene 7508): 0.59
- XRCC2 log2FC (Gene 7516): -0.60
- YWHAG log2FC (Gene 7532): -0.88
- ZNF16 log2FC (Gene 7564): 0.34
- ZBTB17 log2FC (Gene 7709): 0.30
- PTP4A1 log2FC (Gene 7803): -0.61
- EVI5 log2FC (Gene 7813): 0.44
- ALMS1 log2FC (Gene 7840): 0.65
- NR4A3 log2FC (Gene 8013): 0.34
- NUP214 log2FC (Gene 8021): -0.41
- FOSL1 log2FC (Gene 8061): -2.53
- CUL5 log2FC (Gene 8065): -0.23
- YEATS4 log2FC (Gene 8089): 1.06
- HMGA2 log2FC (Gene 8091): -1.51
- CHAF1B log2FC (Gene 8208): -0.0543
- CLTCL1 log2FC (Gene 8218): -0.03
- USP9X log2FC (Gene 8239): 0.62
- SMC1A log2FC (Gene 8243): 0.14
- CDC7 log2FC (Gene 8317): 0.32
- RAD54L log2FC (Gene 8438): -0.18
- CUL4B log2FC (Gene 8450): 0.75
- CUL4A log2FC (Gene 8451): 0.38
- CUL1 log2FC (Gene 8454): 0.21
- KLF11 log2FC (Gene 8462): 1.20
- OFD1 log2FC (Gene 8481): 0.89
- PKP4 log2FC (Gene 8502): 0.15
- GAS7 log2FC (Gene 8522): -0.00153
- DGKZ log2FC (Gene 8525): -0.37
- CAMK1 log2FC (Gene 8536): -0.0329
- CDC14B log2FC (Gene 8555): 0.10
- CDK10 log2FC (Gene 8558): 0.17
- MADD log2FC (Gene 8567): 0.75
- DYNLL1 log2FC (Gene 8655): -1.05
- TNKS log2FC (Gene 8658): 0.82
- BECN1 log2FC (Gene 8678): 0.35
- CDC23 log2FC (Gene 8697): 0.30
- CRADD log2FC (Gene 8738): -0.08
- CCNK log2FC (Gene 8812): -0.50
- BANF1 log2FC (Gene 8815): -0.32
- CDK5R1 log2FC (Gene 8851): -0.33
- IER3 log2FC (Gene 8870): -2.26
- SPHK1 log2FC (Gene 8877): -0.42
- CDC16 log2FC (Gene 8881): 0.66
- CCNA1 log2FC (Gene 8900): 0.11
- TIMELESS log2FC (Gene 8914): 0.20
- PHOX2B log2FC (Gene 8929): -0.0327
- MBD4 log2FC (Gene 8930): 0.29
- BTRC log2FC (Gene 8945): 0.17
- WASL log2FC (Gene 8976): 0.10
- RNF8 log2FC (Gene 9025): -0.06
- PRC1 log2FC (Gene 9055): 0.34
- USP2 log2FC (Gene 9099): -0.07
- USP8 log2FC (Gene 9101): 0.76
- SMC3 log2FC (Gene 9126): 1.35
- EXO1 log2FC (Gene 9156): -0.12
- ARHGEF2 log2FC (Gene 9181): -0.51
- ZW10 log2FC (Gene 9183): 0.27
- BUB3 log2FC (Gene 9184): 0.44
- NOLC1 log2FC (Gene 9221): -0.67
- CCPG1 log2FC (Gene 9236): 1.09
- MAPKAPK2 log2FC (Gene 9261): -0.19
- PIWIL1 log2FC (Gene 9271): 0.0443
- RECQL5 log2FC (Gene 9400): 0.48
- ROCK2 log2FC (Gene 9475): 0.20
- PSMF1 log2FC (Gene 9491): -0.34
- VPS4B log2FC (Gene 9525): 0.64
- CLOCK log2FC (Gene 9575): 0.03
- MAD2L1BP log2FC (Gene 9587): -0.27
- ARHGEF10 log2FC (Gene 9639): 0.19
- MDC1 log2FC (Gene 9656): -0.21
- CEP135 log2FC (Gene 9662): 0.43
- KIAA0430 log2FC (Gene 9665): 0.91
- CROCC log2FC (Gene 9696): -0.11
- ESPL1 log2FC (Gene 9700): 0.72
- CEP57 log2FC (Gene 9702): 1.20
- UTP14C log2FC (Gene 9724): 0.24
- KNTC1 log2FC (Gene 9735): 0.58
- RASSF2 log2FC (Gene 9770): 0.56
- CKAP5 log2FC (Gene 9793): 0.44
- SFI1 log2FC (Gene 9814): 0.17
- RB1CC1 log2FC (Gene 9821): 1.48
- MELK log2FC (Gene 9833): 0.25
- GINS1 log2FC (Gene 9837): -0.84
- MAGI2 log2FC (Gene 9863): 0.33
- TLK1 log2FC (Gene 9874): 0.44
- POM121 log2FC (Gene 9883): -0.58
- KLHL21 log2FC (Gene 9903): 0.49
- DCLRE1A log2FC (Gene 9937): 0.44
- USP3 log2FC (Gene 9960): 0.29
- THOC1 log2FC (Gene 9984): 0.38
- DMTF1 log2FC (Gene 9988): 0.44
- CASP8AP2 log2FC (Gene 9994): 0.61
- PDCD6IP log2FC (Gene 10015): 0.60
- BCL2L11 log2FC (Gene 10018): 0.09
- CHAF1A log2FC (Gene 10036): -0.38
- PARP3 log2FC (Gene 10039): 0.48
- TOM1L1 log2FC (Gene 10040): 0.60
- SMC4 log2FC (Gene 10051): 0.76
- ACTR2 log2FC (Gene 10097): -0.39
- RAD50 log2FC (Gene 10111): 0.41
- KIF20A log2FC (Gene 10112): 0.59
- OPTN log2FC (Gene 10133): 0.73
- AKAP9 log2FC (Gene 10142): 1.37
- PSME3 log2FC (Gene 10197): -1.22
- MPHOSPH9 log2FC (Gene 10198): 0.40
- MPHOSPH6 log2FC (Gene 10200): -0.88
- MAEA log2FC (Gene 10296): -0.11
- PAK4 log2FC (Gene 10298): -0.42
- NPM2 log2FC (Gene 10361): -0.11
- HMG20B log2FC (Gene 10362): 0.52
- CITED2 log2FC (Gene 10370): 2.31
